# Assay results taken from article PMC12298351, “Novel 3,19-(N-Phenyl-3-(4-fluorophenyl)-pyrazole) Acetal of Andrographolide Promotes Cell Cycle Arrest and Apoptosis in MDA-MB-231 Breast Cancer Cells” (Pharmaceuticals, 2025).
# Columns and labels:
# SK-MEL-5 = conditions: SK-MEL-5, Melanoma; for CC50: read-out: 50% lethal concentration (LC50)
# RXF 393 = conditions: RXF 393, Renal; for CC50: read-out: 50% lethal concentration (LC50)
# NCI-H460 = conditions: for GI50: NCI-H460, Non-Small-Cell Lung
# SK-MEL-28 = conditions: SK-MEL-28, Melanoma; for CC50: read-out: 50% lethal concentration (LC50)
# RPMI-8226 = conditions: RPMI-8226, Leukemia; for CC50: read-out: 50% lethal concentration (LC50)
# CAKI-1 = conditions: CAKI-1, Renal; for CC50: read-out: 50% lethal concentration (LC50)
# OVCAR-3 = conditions: OVCAR-3, Ovarian; for CC50: read-out: 50% lethal concentration (LC50)
# EKVX = conditions: for Total growth inhibition (TGI): Non-Small Cell Lung; for GI50: Non-Small-Cell Lung; for CC50: read-out: 50% lethal concentration (LC50), Non-Small Cell Lung
# ACHN = conditions: for GI50 / Total growth inhibition (TGI): Renal; for CC50: read-out: 50% lethal concentration (LC50), Renal
# MDA-MB-468 = conditions: MDA-MB-468, Breast; for CC50: read-out: 50% lethal concentration (LC50)
# NCI-H226 = conditions: for Total growth inhibition (TGI) / CC50: NCI-H226, Non-Small Cell Lung; for GI50: NCI-H226, Non-Small-Cell Lung; for CC50: read-out: 50% lethal concentration (LC50)
# 786-0 = conditions: 786-0, Renal; for CC50: read-out: 50% lethal concentration (LC50)
# SF-539 = conditions: SF-539, CNS; for CC50: read-out: 50% lethal concentration (LC50)
# HCT-116 = assay type: cell-based; conditions: HCT-116, Colon
# KM12 = conditions: KM12, Colon
# HCT-15 = conditions: HCT-15, Colon; for CC50: read-out: 50% lethal concentration (LC50)
# SF-295 = conditions: SF-295, CNS; for CC50: read-out: 50% lethal concentration (LC50)
# SF-268 = conditions: SF-268, CNS; for CC50: read-out: 50% lethal concentration (LC50)
# MDA-MB-231 = conditions: for GI50: MDA-MB-231, Breast; for Total growth inhibition (TGI) / CC50: MDA-MB-231/ATCC, Breast; for CC50: read-out: 50% lethal concentration (LC50)
# [1] = DPPH radical scavenging assay; conditions: 25 µM test compound, 0.1 mM DPPH, acetonitrile, 30 min
# Experimental: A stable free radical DPPH (2,2-Diphenyl-1-picrylhydrazyl) assay was employed to test the antioxidant activity of all the synthesized compounds. Concisely, 25 µM of the test compounds were dissolved in acetonitrile and combined with 0.1 mM of DPPH (in acetonitrile) in a 1:2 ratio (80 µL and 160 µL). Then, the mixture was left undisturbed in the dark for 30 min at room temperature. After 30 min, the absorbance of the solutions was instantly measured at 517 nm using a Varioskan Multiplate Reader (Thermo Fisher Scientific, Mumbai, India). Ascorbic acid (in acetonitrile) was used as the positive control, and andrographolide and isoandrogapholide (in acetonitrile) were used as the standards. The following equation was used to determine the DPPH radical scavenging activity:% Radical scavenging activity = (Ac − As)/Ac × 100 where Ac = the absorbance of the blank (DPPH solution), and As = the absorbance of the test samples
# MOLT-4 = conditions: MOLT-4, Leukemia; for CC50: read-out: 50% lethal concentration (LC50)
# MDA-MB-435 = conditions: MDA-MB-435, Melanoma; for CC50: read-out: 50% lethal concentration (LC50)
# HCC-2998 = conditions: HCC-2998, Colon
# DU-145 = conditions: DU-145, Prostate
# OVCAR-5 = conditions: OVCAR-5, Ovarian; for CC50: read-out: 50% lethal concentration (LC50)
# MCF7 = conditions: MCF7, Breast; for CC50: read-out: 50% lethal concentration (LC50)
# SK-OV-3 = conditions: SK-OV-3, Ovarian; for CC50: read-out: 50% lethal concentration (LC50)
# [2] = read-out: 50% lethal concentration (LC50)
smiles,measurement,setting,value
C=C1CCC2C3(C)COC(c4cn(-c5ccccc5)nc4-c4cccc(F)c4)OC3CCC2(C)C1CC=C1C(=O)OCC1O (stereo not drawn) [1c],GI50,SK-MEL-5,1.65 µM
same,Total growth inhibition (TGI),SK-MEL-5,3.02 µM
same,CC50,SK-MEL-5,5.51 µM
same,GI50,RXF 393,1.64 µM
same,Total growth inhibition (TGI),RXF 393,3.12 µM
same,CC50,RXF 393,5.94 µM
same,Total growth inhibition (TGI),"NCI-H460; NCI-H460, Non-Small Cell Lung",3.59 µM
same,GI50,NCI-H460,1.81 µM
same,GI50,SK-MEL-28,1.77 µM
same,Total growth inhibition (TGI),SK-MEL-28,3.35 µM
same,CC50,SK-MEL-28,6.36 µM
same,GI50,RPMI-8226,2.63 µM
same,Total growth inhibition (TGI),RPMI-8226,> 100 µM
same,CC50,RPMI-8226,> 100 µM
same,GI50,CAKI-1,1.56 µM
same,Total growth inhibition (TGI),CAKI-1,3.09 µM
same,CC50,CAKI-1,6.13 µM
same,GI50,OVCAR-3,1.95 µM
same,Total growth inhibition (TGI),OVCAR-3,3.68 µM
same,CC50,OVCAR-3,6.94 µM
same,Total growth inhibition (TGI),EKVX,5.17 µM
same,GI50,EKVX,2.21 µM
same,CC50,EKVX,56 µM
same,GI50,ACHN,1.8 µM
same,Total growth inhibition (TGI),ACHN,3.53 µM
same,CC50,ACHN,6.94 µM
same,GI50,MDA-MB-468,1.63 µM
same,Total growth inhibition (TGI),MDA-MB-468,3.13 µM
same,CC50,MDA-MB-468,6.01 µM
same,Total growth inhibition (TGI),NCI-H226,3.19 µM
same,GI50,NCI-H226,1.67 µM
same,CC50,NCI-H226,6.08 µM
same,GI50,786-0,1.78 µM
same,Total growth inhibition (TGI),786-0,3.59 µM
same,CC50,786-0,7.24 µM
same,GI50,SF-539,1.77 µM
same,Total growth inhibition (TGI),SF-539,3.17 µM
same,CC50,SF-539,5.68 µM
same,GI50,HCT-116,3.48 µM
same,Total growth inhibition (TGI),HCT-116,1.59 µM
same,GI50,KM12,2.26 µM
same,Total growth inhibition (TGI),KM12,4.47 µM
same,GI50,HCT-15,1.57 µM
same,Total growth inhibition (TGI),HCT-15,3.18 µM
same,CC50,HCT-15,6.45 µM
same,GI50,SF-295,1.52 µM
same,Total growth inhibition (TGI),SF-295,2.88 µM
same,CC50,SF-295,5.49 µM
same,GI50,SF-268,2.27 µM
same,Total growth inhibition (TGI),SF-268,5.61 µM
same,CC50,SF-268,28.4 µM
same,GI50,MDA-MB-231,1.72 µM
same,Total growth inhibition (TGI),MDA-MB-231,3.29 µM
same,CC50,MDA-MB-231,6.28 µM
same,% DPPH radical scavenging activity,[1],58.33%
same,GI50,MOLT-4,0.69 µM
same,CC50,MOLT-4,> 100 µM
same,GI50,MDA-MB-435,1.5 µM
same,Total growth inhibition (TGI),MDA-MB-435,3.08 µM
same,CC50,MDA-MB-435,6.32 µM
same,GI50,HCC-2998,1.73 µM
same,Total growth inhibition (TGI),HCC-2998,3.2 µM
same,GI50,DU-145,1.97 µM
same,Total growth inhibition (TGI),DU-145,4.25 µM
same,CC50,DU-145; [2],9.15 µM
same,GI50,OVCAR-5,1.92 µM
same,Total growth inhibition (TGI),OVCAR-5,4.61 µM
same,CC50,OVCAR-5,31 µM
same,GI50,MCF7,1.63 µM
same,Total growth inhibition (TGI),MCF7,5.49 µM
same,CC50,MCF7,50.1 µM
same,GI50,SK-OV-3,2.7 µM
same,Total growth inhibition (TGI),SK-OV-3,6.09 µM
same,CC50,SK-OV-3,> 100 µM
C=C1CCC2C3(C)COC(c4cn(-c5ccccc5)nc4-c4ccc(Cl)cc4)OC3CCC2(C)C1CC=C1C(=O)OCC1O (stereo not drawn) [1g],GI50,SK-MEL-5,1.7 µM
same,Total growth inhibition (TGI),SK-MEL-5,3.11 µM
same,CC50,SK-MEL-5,5.69 µM
same,GI50,RXF 393,1.79 µM
same,Total growth inhibition (TGI),RXF 393,3.37 µM
same,CC50,RXF 393,6.33 µM
same,Total growth inhibition (TGI),"NCI-H460; NCI-H460, Non-Small Cell Lung",3.72 µM
same,GI50,NCI-H460,1.79 µM
same,CC50,"NCI-H460; read-out: 50% lethal concentration (LC50), NCI-H460, Non-Small Cell Lung",7.76 µM
same,GI50,SK-MEL-28,1.78 µM
same,Total growth inhibition (TGI),SK-MEL-28,3.36 µM
same,CC50,SK-MEL-28,6.35 µM
same,GI50,RPMI-8226,2.46 µM
same,Total growth inhibition (TGI),RPMI-8226,> 100 µM
same,CC50,RPMI-8226,> 100 µM
same,GI50,CAKI-1,1.63 µM
same,Total growth inhibition (TGI),CAKI-1,3.28 µM
same,CC50,CAKI-1,6.59 µM
same,GI50,OVCAR-3,1.78 µM
same,Total growth inhibition (TGI),OVCAR-3,3.72 µM
same,CC50,OVCAR-3,7.77 µM
same,Total growth inhibition (TGI),EKVX,5.28 µM
same,GI50,EKVX,2.24 µM
same,CC50,EKVX,> 100 µM
same,GI50,ACHN,1.89 µM
same,Total growth inhibition (TGI),ACHN,3.95 µM
same,CC50,ACHN,8.23 µM
same,GI50,MDA-MB-468,2 µM
same,Total growth inhibition (TGI),MDA-MB-468,4.49 µM
same,CC50,MDA-MB-468,6.36 µM
same,Total growth inhibition (TGI),NCI-H226,3.05 µM
same,GI50,NCI-H226,1.55 µM
same,CC50,NCI-H226,5.99 µM
same,GI50,786-0,1.99 µM
same,Total growth inhibition (TGI),786-0,4.17 µM
same,CC50,786-0,8.7 µM
same,GI50,SF-539,1.72 µM
same,Total growth inhibition (TGI),SF-539,3.12 µM
same,CC50,SF-539,5.66 µM
same,GI50,HCT-116,1.2 µM
same,Total growth inhibition (TGI),HCT-116,2.53 µM
same,CC50,HCT-116; [2],5.37 µM
same,GI50,KM12,2.29 µM
same,Total growth inhibition (TGI),KM12,4.92 µM
same,GI50,HCT-15,1.59 µM
same,Total growth inhibition (TGI),HCT-15,3.21 µM
same,CC50,HCT-15,6.51 µM
same,GI50,SF-295,1.5 µM
same,Total growth inhibition (TGI),SF-295,2.88 µM
same,CC50,SF-295,5.51 µM
same,GI50,SF-268,2.39 µM
same,Total growth inhibition (TGI),SF-268,6.32 µM
same,CC50,SF-268,> 100 µM
same,GI50,MDA-MB-231,1.68 µM
same,Total growth inhibition (TGI),MDA-MB-231,4.6 µM
same,CC50,MDA-MB-231,6.25 µM
same,% DPPH radical scavenging activity,[1],57.45%
same,GI50,MOLT-4,0.88 µM
same,Total growth inhibition (TGI),MOLT-4,> 100 µM
same,CC50,MOLT-4,> 100 µM
same,GI50,MDA-MB-435,1.65 µM
same,Total growth inhibition (TGI),MDA-MB-435,3.28 µM
same,CC50,MDA-MB-435,6.51 µM
same,GI50,HCC-2998,1.88 µM
same,Total growth inhibition (TGI),HCC-2998,3.39 µM
same,GI50,DU-145,2.05 µM
same,Total growth inhibition (TGI),DU-145,4.1 µM
same,GI50,OVCAR-5,1.98 µM
same,Total growth inhibition (TGI),OVCAR-5,5.38 µM
same,CC50,OVCAR-5,> 100 µM
same,GI50,MCF7,1.51 µM
same,Total growth inhibition (TGI),MCF7,> 100 µM
same,CC50,MCF7,42.8 µM
same,GI50,SK-OV-3,3.04 µM
same,Total growth inhibition (TGI),SK-OV-3,1.67 µM
same,CC50,SK-OV-3,> 100 µM
